The record followed here is patent US8987486B2, “Trans-2-decenoic acid derivative and pharmaceutical agent containing the same” (Nagoya Industrial Science Research Institute, priority 2010, dated 2015).

Common to all, as to assay type: in vivo
Assay [1] concerns paclitaxel-induced peripheral nerve disorder rats. Description: von Frey test in paclitaxel-induced peripheral nerve disorder rats. Conditions: Rattus norvegicus, ip; single intraperitoneal dose of 300 μ/kg; higher of the thresholds after 1 hour and 5 hours; normal threshold 15; read-out: Recovery rate of 50% reaction threshold value (%). In short, it runs like this: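 Male SD rats (six weeks, n=6/group) got paclitaxel 2 mg/kg i.p. every other day ×4. On days 18–25 or 20–27, test drug was given i.p. as a single […] dose. Von Frey up-down 50% thresholds (right hind paw) were taken pre-dose and at 1, 5, 24 h. Recovery rate used the higher 1/5 h value and a normal threshold of 15.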

Assay [2] concerns disablement model rats with hemi-transection of spinal cord. Description: Improvement in motor function (BBB scale) in rats with hemi-transection of spinal cord. As to the method:
Female Wistar rats of seven weeks age (body weight: 120 to 140 g) were anesthetized with pentobarbital (40 mg/kg), thoracic vertebrae were detached to expose the thoracic cord and the left half thereof was cut at the position of the tenth thoracic cord using a sharp razor. After that, the muscle and the skin were satured to prepare disablement model rats with hemi-transection of spinal cord.
The compound of the present invention was dissolved in PBS or in a PBS solvent containing DMSO, etc. and orally administered once daily for 21 to 31 days.
With regard to the group administered with the compound of the present invention (n=3 to 6) and the control group (n=3 to 6), the improvement in motor function of the disablement model rats with hemi-transection of spinal cord was evaluated by a BBB scale (Basso D M, et al., J. Neurotrauma 12:1-21 (1995). Thus, evaluation of motor function was conducted for hind limbs of rats in such respects that whether the joint moves, whether body weight is applied onto the foot, whether walking is done, etc. wherein the movement of the hind limbs was divided into 21 points from no motility to normal state. Incidentally, the test for significance was conducted by a two-way ANOVA, Bonferroni Post test.

Assay [3] concerns male mice injected with corticosterone. Description: Tail suspension test in mice administered corticosterone. Conditions: after two weeks, control 141.15 seconds. As to the method:
Corticosterone suspended in oil was hypodermically injected to male mice of seven weeks age (n=3 to 5) in a dose of […] every day for three weeks. At the same time, the compound of the present invention dissolved in PBS or in a PBS solvent containing DMSO, etc. was orally administered every day for three weeks. After one, two and three week(s), the suppressive effect for depressive symptom was evaluated by a tail suspension test in the same manner as in the above Test Example 7. Incidentally, the test for significance was conducted by a Student's t-test.

As to `CCCCCCC/C=C/C(=O)OCCN(C)C` [Compound 1, (E)-2-(dimethylamino)ethyl dec-2-enoate], in assay [1], the inhibition in vivo at 0.3 mg/kg was 48.3%.

`CCCCCCC/C=C/C(=O)OCCN(CC)CC` [Compound 6, (E)-2-(diethylamino)ethyl dec-2-enoate] registered a BBB score in assay [2] (100 μg/kg orally once daily, after nine days, control 3.5) of 8.3. Besides, the “immobility time (tail suspension test)” value in assay [3] (300 μg/kg orally every day) is 60.37 s.

In the case of `CCCCCCC/C=C/C(=O)NCCN(C)C` [Compound 36, (E)-N-2-(dimethylamino)ethyl dec-2-enamide], in assay [2] (500 μg/kg orally once daily, after fifteen days, control 9.8), the BBB score is 12.3. Also, in assay [3] (300 μg/kg orally every day), the “immobility time (tail suspension test)” value was determined as 41.63 s. The inhibition in vivo at 0.3 mg/kg in assay [1] worked out at 72.1%.

On to `CCCCCCC/C=C/C(=O)NCCN(CC)CC` [Compound 37, (E)-N-2-(diethylamino)ethyl dec-2-enamide], for which the inhibition in vivo at 0.3 mg/kg in assay [1] stood at 73.1%.

As for `CCCCCCC/C=C/C(=O)SCCN(C)C` [Compound 55, (E)-S-2-(dimethylamino)ethyl dec-2-enethioate], the BBB score in assay [2] (500 μg/kg orally once daily, after fourteen days, control 8.5) is recorded as 12.3; in assay [2] (500 μg/kg orally once daily, after seven days, control 1.8), 5.3. Moreover, the “immobility time (tail suspension test)” value in assay [3] (1,500 μg/kg orally every day) stood at 86.71 s. Besides, the inhibition in vivo at 0.3 mg/kg in assay [1] is 45.4%.
